Experimental data as given in patent US20230241064A1, “METHODS OF TREATMENT AND/OR PREVENTION OF MAJOR ADVERSE CARDIOVASCULAR EVENTS (MACE) WITH A COMBINATION OF A BET BROMODOMAIN INHIBITOR AND A DIPEPTIDYL PEPTIDASE 4 INHIBITOR” (Resverlogix Corp., priority 2020, published 2023).

Legend:
[1] = EXAMINE; cited from earlier work
[2] = vs placebo; TECOS trial; cited from earlier work
[3] = tested on: type 2 diabetes patients with low HDL cholesterol and a recent acute coronary syndrome (ACS); test: BETonMACE post-hoc analysis: cumulative incidence of cardiovascular death; type: in vivo, human; details: patients without DPP-4 inhibitor; vs placebo (non-treatment); FIG. 11
Procedure: (§1) Apabetalone (RVX-208) was evaluated in a recently completed clinical Phase 3 trial (BETonMACE; NCT02586155) for the effect on MACE in type 2 diabetes patients with low HDL cholesterol (below 40 mg/dL for males and below 45 mg/dL for females) and a recent acute coronary syndrome (ACS). All patients received high intensity statin treatment, which was 20-40 mg daily or a maximum daily dose of 40 mg for rosuvastatin or 40-80 mg daily or a maximum daily dose of 80 mg for atorvastatin.
(§2) Patients (n=2425) with ACS in the preceding 7 to 90 days, with type 2 diabetes and low HDL cholesterol (≤40 mg/dl for men, ≤45 mg/dl for women), receiving intensive or maximum-tolerated therapy with atorvastatin or rosuvastatin, were assigned in double-blind fashion to receive apabetalone 100 mg orally twice daily or matching placebo. Baseline characteristics include female sex (25%), myocardial infarction as index ACS event (74%), coronary revascularization for index ACS (76%), treatment with dual anti-platelet therapy (87%) and renin-angiotensin system inhibitors (91%), median LDL cholesterol 65 mg per deciliter, and median HbA1c 7.3%. The primary efficacy measure is time to first occurrence of cardiovascular death, non-fatal myocardial infarction, or stroke. Assumptions include a primary event rate of 7% per annum in the placebo group and median follow-up of 1.5 years. […]

[4] = tested on: type 2 diabetes patients with low HDL cholesterol and a recent acute coronary syndrome (ACS); test: BETonMACE Phase 3 trial post-hoc analysis: cumulative incidence of narrowly defined MACE; type: in vivo, human
Procedure: Patients (n=2425) with ACS in the preceding 7 to 90 days, with type 2 diabetes and low HDL cholesterol (≤40 mg/dl for men, ≤45 mg/dl for women), receiving intensive or maximum-tolerated therapy with atorvastatin or rosuvastatin, were assigned in double-blind fashion to receive apabetalone 100 mg orally twice daily or matching placebo. Baseline characteristics include female sex (25%), myocardial infarction as index ACS event (74%), coronary revascularization for index ACS (76%), treatment with dual anti-platelet therapy (87%) and renin-angiotensin system inhibitors (91%), median LDL cholesterol 65 mg per deciliter, and median HbA1c 7.3%. The primary efficacy measure is time to first occurrence of cardiovascular death, non-fatal myocardial infarction, or stroke. Assumptions include a primary event rate of 7% per annum in the placebo group and median follow-up of 1.5 years. Patients were followed until at least 250 primary endpoint events had occurred, providing 80% power to detect a 30% reduction in the primary endpoint with apabetalone.
Those patients who received at least one dose of DPP-4 inhibitor treatment after the date of the first incidence of event were censored as non-MACE events and the date of last contact was used as the censoring date.
The distributions of the endpoints within the apabetalone and placebo groups were compared using a two-sided log-rank test (LRT) with an alpha=0.05 level of significance. The cumulative incidence is shown as 1-KM (Kaplan-Meier) estimate for event rate.

[5] = tested on: type 2 diabetes patients with low HDL cholesterol and a recent acute coronary syndrome (ACS); test: BETonMACE post-hoc analysis: cumulative incidence of non-fatal myocardial infarction; type: in vivo, human; details: patients without DPP-4 inhibitor; vs placebo (non-treatment); FIG. 8
Procedure: as §1, §2

[6] = tested on: type 2 diabetes patients with low HDL cholesterol and a recent acute coronary syndrome (ACS); test: BETonMACE post-hoc analysis: cumulative incidence of hospitalization for congestive heart failure; type: in vivo, human; details: patients without DPP-4 inhibitor, vs placebo (non-treatment)
[7] = tested on: type 2 diabetes patients with low HDL cholesterol and a recent acute coronary syndrome (ACS); test: BETonMACE post-hoc analysis: cumulative incidence of broadly defined MACE; type: in vivo, human; details: patients without DPP-4 inhibitor; vs placebo (non-treatment); FIG. 5

SMILES: Cn1c(=O)cc(N2CCC[C@@H](N)C2)n(Cc2ccccc2C#N)c1=O [alogliptin]
- effect on the 3-point MACE composite outcome of cardiovascular death, myocardial infarction, or ischemic stroke [1]: neutral effect

SMILES: N[C@@H](CC(=O)N1CCn2c(nnc2C(F)(F)F)C1)Cc1cc(F)c(F)cc1F [sitagliptin]
- hazard ratio (HR), 3-point MACE composite outcome [2]: 0.99
- hazard ratio (HR), 4-point MACE composite outcome [2]: 0.98

SMILES: COc1cc(OC)c2c(=O)[nH]c(-c3cc(C)c(OCCO)c(C)c3)nc2c1 [apabetalone, 2-(4-(2-hydroxyethoxy)-3,5-dimethylphenyl)-5,7-dimethoxyquinazolin-4(3H)-one]
- Hazard Ratio, cardiovascular death [3]: 0.97
- number of primary end points (narrowly defined MACE: cardiovascular death, non-fatal myocardial infarction, or stroke) ([4]; apabetalone 100 mg orally twice daily, on statin, per treatment group): 114
- Kaplan-Meier estimated event rate, narrowly defined MACE ([4]; at 18 months): 8.0%
- Hazard Ratio, narrowly defined MACE ([4]; patients without DPP-4 inhibitor, vs placebo (non-treatment), FIG. 2): 0.99
- primary end points (narrowly defined MACE) as percent of group ([4]; per treatment group): 10.9%
- Hazard Ratio, non-fatal myocardial infarction [5]: 0.99
- reduction of number of patients having a hospitalization for congestive heart failure event at any given time [6]: 27%
- Hazard Ratio, hospitalization for congestive heart failure ([6]; FIG. 14): 0.73
- Hazard Ratio, broadly defined MACE [7]: 1.00
